Reference: patent US20070065472A1, “Benzyl-1,3-thiazolidine-2,4-dione compounds for stimulating or inducing the growth and/or for reducing the loss of keratin fibers” (L'OREAL, priority 2005, published 2007)

melting point: 84 to 85 °C
SMILES: O=C1NC(=O)C(Cc2ccccc2Oc2ccccc2)S1 (stereo not shown) [Example 1, 5-(2-phenoxybenzyl)-1,3-thiazolidine-2,4-dione]
